Data: PMC8246084, “Mapping the binding site topology of amyloid protein aggregates using multivalent ligands” (Chemical Science, 2021)
Like-named read-outs stand apart in the source and are kept apart here.

Tests used:
[1] = Solubility for fluorescence titrations in PBS; type: physicochemical; settings: PBS 1× titration conditions
Excerpt: Eqn (1)–(3) can be fit to the two sets of titration data in Fig. 3 to determine the dissociation constant Kd and brightness (ef) of the free and bound BTA dimer, and in the case of high affinity binding, the concentration of binding sites on the protein fibrils. In all cases, the titration data fit well to a 1 : 1 binding isotherm, and the lines shown in Fig. 3 are the calculated lines of best fit.
Fluorescent titrations with the polydisperse mixtures of BTA dimers were used to measure the apparent binding affinities for α-synuclein fibrils in the same way as described above for the monodisperse BTA dimers. The titration data fit well to a 1 : 1 binding isotherm allowing for the fluorescence emission from the free dye as described above, and the results are summarised in Table 2. […] The dissociation constants for the other polydisperse BTA dimers are in the same range as those measured for the monodisperse analogues. […]
5. Fluorescence titrations […]
The fluorescence spectra were analysed using a Microsoft Excel spreadsheet to fit the changes in fluorescence intensity at fixed wavelengths to a 1:1 binding isotherm by optimizing the association constant, the optical brightness of the free and bound guest, and the concentration of protein binding sites using purpose written VBA macros. […]
Figure S25. Fluorescence titration of compound 14. […]
Figure S26. Fluorescence titration of compound 15. […]

[2] = target: Tau-positive neuronal inclusions (Homo sapiens, UniProt P10636); assay: Staining of brain sections from patients with Alzheimer's disease (tau); settings: compound 1 μM
Chain of Tau-positive neuronal inclusions (P10636 623-708 limits assumed): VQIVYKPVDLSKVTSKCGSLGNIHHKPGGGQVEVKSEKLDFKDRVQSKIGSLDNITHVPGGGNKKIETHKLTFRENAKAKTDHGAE
Excerpt: (§1) Brain sections from patients with Parkinson's disease were labelled with antibodies against α-synuclein (LB509 and pS129) and stained with compounds 13, 14 and 15 (Fig. 8a). LB509/pS129-positive Lewy bodies, that were identified as cytoplasmic spheres, were stained by both compounds 14 and 15 but not by compound 13. […] To assess any potential cross-reactivity with other pathological amyloid aggregates, such as Aβ plaques and neurofibrillary tangles of tau, brain sections from patients with Alzheimer's disease were labelled with antibody against tau (dako tau) and Aβ (4G8) and stained with compounds 13, 14 and 15 (Fig. 8b).
(§2) Fig. 8 Fluorescence microscope images of human brain sections. (a) Sections from patients with Parkinson's disease labelled with antibodies against α-synuclein (LB509 and pS129) and stained with compounds 13, 14 and 15 (100 nM). (b) Sections from patients with Alzheimer's disease labelled with antibodies against tau (dako tau) and Aβ (4G8) and stained with compounds 13, 14 and 15 (1 μM). Scale bar 20 μm.
(§3) Frozen brain tissues from neuropathologically confirmed cases of PD and AD were obtained from the Cambridge Brain Bank (Table S3). Tissue blocks were post-fixed in 4% paraformaldehyde and cryoprotected before snap freezing in OCT. Brain sections (15 μm) were generated using a cryostat (Bright OTF5000) for immunohistochemistry and compound staining.
(§4) Table S3. Details of human tissue used (SN substantia nigra, FL frontal lobe) Case no Diagnosis Braak Stage Brain region Age
(§5) 9. Immunohistochemistry and Staining […]
(§6) A11011, ThermoFisher) for PD sections or a mixture of goat anti-mouse ALEXA-647 (1:1000, A21235, ThermoFisher) and goat anti-rabbit ALEXA-546 (1:1000, A11035, ThermoFisher) for AD sections. […] Fluorescence images were taken using a Leica DMI4000B.

[3] = test system: 4G8-positive extracellular plaques (Aβ); assay: Staining of brain sections from patients with Alzheimer's disease (Aβ); set-up: species or system human; settings: compound 1 μM
Excerpt: as §1, §2, §3, §4, §5, §6

[4] = target: T1, α-synuclein aggregates (LB509/pS129-positive Lewy bodies) (Homo sapiens, UniProt P37840); assay: Staining of brain sections from patients with Parkinson's disease; settings: compound 100 nM
T1 construct: tissue Cambridge Brain Bank; host or cells: post-mortem human brain sections, Parkinson's disease, substantia nigra
Excerpt: as §1, §2, §3, §4
9. Immunohistochemistry and Staining
Fixed brain sections were washed with 70% EtOH and allowed to air dry for 20 min before incubation overnight at 4°C with either a mixture of monoclonal antibodies for α-syn (1:500, ab27766, Abcam) and pS129 α-syn (1:500, ab51253, Abcam) for PD sections or a mixture of monoclonal antibody for Aβ (1:500, 800701, Biolegend) and polyclonal antibody for human tau (1:500, A002401-2, Agilent) for AD sections. Sections were washed with PBS 3 x 15 min and incubated for 3 h at room temperature in secondary antibody, either a mixture of goat anti- […]
A11011, ThermoFisher) for PD sections or a mixture of goat anti-mouse ALEXA-647 (1:1000, A21235, ThermoFisher) and goat anti-rabbit ALEXA-546 (1:1000, A11035, ThermoFisher) for AD sections. Compounds 13, 14 and 15 were also diluted in the secondary antibody preparation at stated concentrations. Sections were washed with PBS 3 x 10 min and once with 70% EtOH 5 min before blocking autofluorescence with Autofluorescence Inhibitor (2160, Millipore) for 5 min. After 3 x 1 min washes in 70% EtOH sections were mounted using Fluorosave mounting medium (345789, Millipore). Fluorescence images were taken using a Leica DMI4000B.

α-synuclein fibrils = α-synuclein fibrils (Homo sapiens, UniProt P37840); assay: Fluorescence titration with α-synuclein fibrils; type: binding
tau fibrils (htau 0N4R) = target: T2, tau fibrils (htau 0N4R) (Homo sapiens, UniProt P10636); assay: Fluorescence titration with tau fibrils; settings: monodisperse BTA dimers; 0.5 μM tau; PBS 1× pH 7.4, 298 K; errors at 95% confidence limit; read-out: Dissociation constant (Kd) for binding to tau fibrils
T2 construct: purchased InVivo BioTech Services GmbH, Germany
T2 sequence (P10636 1-383 isoform P10636-6): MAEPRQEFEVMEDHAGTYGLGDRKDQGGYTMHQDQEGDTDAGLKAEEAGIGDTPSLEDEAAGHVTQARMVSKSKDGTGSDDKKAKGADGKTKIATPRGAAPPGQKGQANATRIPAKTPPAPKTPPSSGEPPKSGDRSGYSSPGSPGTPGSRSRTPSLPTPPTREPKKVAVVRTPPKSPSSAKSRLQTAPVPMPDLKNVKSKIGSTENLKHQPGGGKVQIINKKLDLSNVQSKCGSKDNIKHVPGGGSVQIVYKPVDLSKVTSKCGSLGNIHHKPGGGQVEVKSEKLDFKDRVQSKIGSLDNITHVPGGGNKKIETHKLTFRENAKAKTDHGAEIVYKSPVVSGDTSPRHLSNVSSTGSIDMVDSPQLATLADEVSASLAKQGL

Aβ42 fibrils = target: T3, Aβ42 fibrils (Homo sapiens, UniProt P05067); assay: Fluorescence titration with Aβ42 fibrils; settings: monodisperse BTA dimers; 0.5 μM Aβ42; PBS 1× pH 7.4, 298 K; errors at 95% confidence limit; read-out: Dissociation constant (Kd) for binding to Aβ42 fibrils
T3 construct: monomeric amyloid-b1-42; purchased Stratech A-1167-2-RPE
T3 sequence (P05067 672-713 limits assumed): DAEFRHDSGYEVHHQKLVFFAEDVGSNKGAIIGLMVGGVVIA

[5] = target: α-synuclein sonicated fibrils (Homo sapiens, UniProt P37840); assay: TIRFM imaging of α-synuclein aggregates in vitro; settings: nanomolar 15 (4 nM, 200 nM) vs 5 μM ThT; fibrils from 200 nM monomer
Excerpt: The highest affinity BTA dimers were investigated as fluorescence imaging agents for protein aggregates. Fig. 7 compares in vitro imaging of α-synuclein aggregates with 15 and with thioflavin T (ThT). ThT is widely used to image aggregates, because it has a very low fluorescence emission intensity in the free state, and there is a large increase in fluorescence emission on binding to protein aggregates. The corresponding change in fluorescence emission intensity is much lower for the BTA dimers described here (see Fig. 3).
Fig. 7 TIRFM images of α-synuclein sonicated fibrils in the presence of (a) 4 nM 15, (b) 200 nM 15 and (c) 5 μM ThT. Fibrils were obtained from 200 nM samples of the monomer. All images have the same contrast. Scale bar 10 μm.
7. Total internal reflection fluorescence microscopy (TIRFM) imaging
Imaging was performed using a homebuilt total internal reflection fluorescence microscope as reported previously.7 Briefly, this imaging mode restricts detectable axial fluorescence signal to within ~200 nm from the glass-water interface. […] Fluorescence was collected by the same objective and was separated from the returning TIR beam by a dichroic (Di01-R405/488/561/635, Semrock), and passed through […]
respectively). The images were recorded on an EMCCD camera (Evolve 512, Photometrics) operating in frame transfer mode (EMGain of 11.5 e−/ADU and 250 ADU/photon). […]

[6] = monodisperse BTA dimers, 1 μM α-synuclein, PBS 1× pH 7.4, 298 K, errors at 95% confidence limit, read-out: Dissociation constant (Kd) for binding to α-synuclein fibrils

Row | SMILES | Solubility (sufficient to determine accurate dissociation constants) [1] | Staining of tau-positive neuronal inclusions [2] | Staining of 4G8-positive extracellular plaques [3] | Staining of LB509/pS129-positive Lewy bodies [4] | Kd (α-synuclein fibrils; monomeric BTA analogue, fluorescence titration, read-out: Kd for α-synuclein (binding affinity too low to measure)) [µM] | Kd (α-synuclein fibrils; [6]) [µM] | Kd (tau fibrils (htau 0N4R)) [µM] | Kd (Aβ42 fibrils) [µM] | Co-localisation with α-synuclein antibodies elsewhere in the brain section [4] | Image brightness compared with ThT [5]
1 | CN(C)c1ccc(-c2nc3ccc(OCCOCCOCCOc4ccc5nc(-c6ccc(N(C)C)cc6)sc5c4)cc3s2)cc1 [Compound 13] | not sufficiently soluble | no staining | no staining | not |  |  |  |  |  | 
2 | COCCOCCOCCOc1ccc2nc(-c3ccc(N(C)C)cc3)sc2c1 [monomeric BTA analogue] |  |  |  |  | > 1 |  |  |  |  | 
3 | CN(C)c1ccc(-c2nc3ccc(OCCOCCOCCOCCOCCOCCOc4ccc5nc(-c6ccc(N(C)C)cc6)sc5c4)cc3s2)cc1 [Compound 14] |  | no staining | no staining | stained |  | 0.19 ± 0.14 | 0.9 ± 0.7 | 1.4 ± 1.6 | significant amounts of co-localisation | 
4 | CN(C)c1ccc(-c2nc3ccc(OCCOCCOCCOCCOCCOCCOCCOCCOCCOCCOCCOCCOCCOCCOCCOc4ccc5nc(-c6ccc(N(C)C)cc6)sc5c4)cc3s2)cc1 [Compound 16] |  |  |  |  |  | 0.035 ± 0.015 | 0.11 ± 0.057 | 0.007 ± 0.005 |  | 
5 | CN(C)c1ccc(-c2nc3ccc(OCCOCCOCCOCCOCCOCCOCCOCCOCCOCCOCCOCCOCCOCCOCCOCCOCCOCCOCCOCCOCCOc4ccc5nc(-c6ccc(N(C)C)cc6)sc5c4)cc3s2)cc1 [Compound 17] |  |  |  |  |  | 0.21 ± 0.18 | 0.28 ± 0.048 | 0.32 ± 0.075 |  | 
6 | CN(C)c1ccc(-c2nc3ccc(OCCOCCOCCOCCOCCOCCOCCOCCOCCOc4ccc5nc(-c6ccc(N(C)C)cc6)sc5c4)cc3s2)cc1 [Compound 15] |  | no staining | no staining | stained |  | 0.0027 ± 0.0015 | 1 ± 0.3 | 0.078 ± 0.026 |  | brighter
